# Reference: PMC8508960, “Ruthenium Half-Sandwich Type Complexes with Bidentate Monosaccharide Ligands Show Antineoplastic Activity in Ovarian Cancer Cell Models through Reactive Oxygen Species Production” (International Journal of Molecular Sciences, 2021)
# Experiments:
# [1] = Aqueous stability over time by NMR; type: physicochemical; settings: aqueous medium, 2 day old equilibrated sample, KCl added
# Text: The aqueous stability of the complexes was also studied over time. The small shifts of signals attributable to the structural change of the complex can be observed; however, by adding KCl to the 2 day old equilibrated sample, the original signals could be recovered.
# [2] = test system: human primary skin fibroblasts; assay: MTT reduction assay (4 h, rapid toxicity) on primary fibroblasts; type: cell-based
# Method: (§1) Cells were cultured under standard cell culture conditions, 37 °C, 5% CO2, humidified atmosphere. A2780 cells were cultured in RMPI 1640 medium supplemented with 10% fetal calf serum, 2 mM glutamine, and 1% penicillin–streptomycin (Sigma-Aldrich). ID8 cells were cultured in high-glucose DMEM (4.5 g/L glucose) supplemented with 4% fetal calf serum, 2 mM glutamine, 1% penicillin–streptomycin (Sigma-Aldrich), and 1% ITS supplement (Sigma-Aldrich I3146). U251 cells were maintained in MEM (Sigma-Aldrich), 10% fetal bovine serum (Sigma-Aldrich), 1% penicillin/streptomycin (Invitrogene), and 2 mM glutamine. MCF7 cells were maintained in MEM (Sigma-Aldrich), 10% fetal bovine serum (Sigma-Aldrich), 1% penicillin/streptomycin (Invitrogen, Waltham, MA, USA), and 2 mM glutamine. Capan2 cells were maintained in MEM (Sigma-Aldrich), 10% fetal bovine serum (Sigma-Aldrich), 1% penicillin/streptomycin (Invitrogen), and 2 mM glutamine. Human primary dermal fibroblasts were cultured in low-glucose DMEM (1 g/L glucose) supplemented with 20% fetal calf serum, 2 mM glutamine, and 1% penicillin–streptomycin (Sigma-Aldrich).
# (§2) The MTT reduction assay assesses the activity of mitochondrial complex I, and it was used to assess rapid toxicity. The MTT reduction assay was performed similarly to [67]. Cells were seeded in 96-well plates. The next day, cells were treated with the compounds for 4 h in the concentrations indicated in a cell incubator. At the end of treatment, MTT was added in 0.5 mg/mL final concentration, and cells were incubated at 37 °C in a cell incubator. Then, culture media was removed, the reduced MTT dye was resolved in dimethyl sulfoxide (DMSO), and plates were measured in a plate photometer (Thermo Scientific Multiscan GO spectrophotometer, Waltham, MA, USA) at 540 nm. On each plate, wells were designed to contain untreated/vehicle-treated cells. In calculations, the readings for these wells were considered as 1, and all readings were expressed relative to these values.
# [3] = test system: A2780 human ovarian carcinoma cells; assay: MTT reduction assay (4 h, rapid toxicity) on A2780 cells; type: cell-based
# Method: as §1, §2
# A2780 cells [4] = assay: SRB assay on A2780 cells with antioxidant cotreatment (GSH, NAC, MitoTEMPO, vitamin E, Trolox); type: cell-based, human; settings: 48 h
# Method: (§3) The SRB accumulation assay assesses protein content in a sample, and it was used to assess cell proliferation. The SRB accumulation assay was performed similarly to [68]. Cells were seeded in 96-well plates. The next day, cells were treated with the compounds for 48 h in the concentrations indicated in a cell incubator. At the end of treatment, cells were fixed with 10% trichloroacetic acid (TCA). Fixed cells were stained with SRB (0.4% m/v dissolved in 1% acetic acid) for 60 min. Fixed cells were washed in 1% acetic acid three times; acetic acid was removed, and cells were left to dry. Protein-bound SRB was released by adding 100 µL of 10 mM Tris base. Plates were measured in a plate photometer (Thermo Scientific Multiscan GO spectrophotometer, Waltham, MA, USA) at 540 nm. On each plate, wells were designed to contain untreated cells. In calculations, the readings for these wells were considered as 1, and all readings were expressed relative to these values.
# [5] = Determination of the distribution coefficients (logD), n-octanol/PBS; type: physicochemical; settings: n-octanol / PBS pH = 7.40
# Method: Prior to the experiments, n-octanol was saturated with aqueous PBS solution (pH = 7.40) and vice versa. The corresponding complex (approximately 0.2–0.3 mg) was dissolved in a mixture of 2.50 mL of pre-saturated n-octanol and 2.50 mL of pre-saturated PBS buffer, and the mixture was vigorously stirred for 3 days. According to the NMR stability measurements, this time was necessary to reach equilibrium between the various ionic complex species. Due to the lipophilic/hydrophilic character of the complexes, those with benzoyl protection or the non-sugar derivative could mostly be found in the n-octanol, while the acetyl and non-protected complexes could be found in the aqueous PBS phase. The appropriate separated solution was centrifuged (ScanSpeed 406G instrument, 4000 RPM for 5 min), and the absorption of the “stock solution” was measured (VWR UV-1600PC Spectrophotometer, 270–420 nm). Then 2.00 mL of stock solution was stirred vigorously with 16.00 mL of pre-saturated, clean n-octanol or PBS solution. After 1 day, the phases were separated and centrifuged, and the absorption of the solution was measured again. From the absorption difference of the stock solutions, the distribution coefficient (D) was calculated according to the previously described formulae [66].
# [6] = test system: Capan2 (pancreatic adenocarcinoma); assay: SRB proliferation assay (48 h) on Capan2 cells; type: cell-based; settings: nonlinear regression
# Method: as §1, §3
# (§4) Statistical analysis was performed using Graphpad Prism version 8.0.1. Values were tested for normal distribution using the D’Agostino and Pearson normality test. When necessary, values were log-normalized or were normalized using the Box–Cox normalization method, as indicated in the figure captions. Nonlinear regression was performed using the built-in “[Inhibitor] vs. response—variable slope (four parameters), least square fit” utility of Graphpad that yielded IC50 and Hill slope values.
# A2780 cells [7] = assay: Annexin V-FITC, PI double staining (flow cytometry); type: cell-based, human; settings: concentration corresponding to IC50, 2 h, 4 h or 48 h
# Method: Annexin V–PI double staining was applied to assess apoptotic and necrotic cell death similar to [37, 38, 69]. A2780 cells were treated with the indicated compounds at the concentration corresponding to their IC50 value for 2, 4, and 48 h. The 4 and 48 h time points correspond to the time points for the MTT and SRB assays, while the 2 h time point reflects the optimum time point for the detection of apoptotic or necrotic cell death. Quadrants were set on the basis of the FITC and PI values observed for the vehicle-treated cells.
# [8] = test system: MCF7 cells (breast cancer); assay: SRB proliferation assay (48 h) on MCF7 cells; type: cell-based; settings: nonlinear regression
# Method: as §1, §3, §4
# A2780 cells [9] = assay: Western blotting of 4-hydroxy-nonenal (4HNE), oxidative stress marker; type: cell-based, human; settings: concentration corresponding to IC50, 48 h
# Method: The preparation of protein extracts, the separation of protein extracts in SDS-polyacrylamide gel electrophoresis, and the subsequent Western blotting were performed as described in [70] using the antibodies in Table 4. Enhanced chemiluminescence was developed using ChemiDoc Imager, (Bio-Rad, Hercules, CA, USA). Densitometry was performed using Image Lab Touch Software, Bio-Rad, Hercules, CA, USA).
# [10] = test system: human primary skin fibroblasts; assay: SRB proliferation assay (48 h) on primary fibroblasts; type: cell-based
# Method: as §1, §3, §4
# [11] = test system: U251 cells (glioblastoma model); assay: SRB proliferation assay (48 h) on U251 cells; type: cell-based; settings: nonlinear regression
# Method: as §1, §3, §4
# A2780 cells [12] = assay: SRB assay on A2780 cells with or without 3 µM rucaparib; type: cell-based, human; settings: 48 h, vehicle (no rucaparib)
# Method: as §3, §4
# [13] = test system: A2780 human ovarian carcinoma cells; assay: SRB proliferation assay (48 h) on A2780 cells; type: cell-based
# Method: as §1, §3, §4
# ID8 cells [14] = assay: SRB proliferation assay (48 h) on ID8 cells; type: cell-based
# Method: as §1, §3, §4
# ID8 cells [15] = assay: MTT reduction assay (4 h, rapid toxicity) on ID8 cells; type: cell-based; settings: 100 µM, Ru-4: not statistically significant
# Method: as §1, §2
# [16] = SRB, nonlinear regression, N/A = could not be calculated/had no effect
structure (smiles),measurement,setting,value
Cc1ccc(C(C)C)cc1.F[P-](F)(F)(F)(F)F.OCC1OC(n2cc(-c3ccccn3)nn2)C(O)C(O)C1O.[Cl][Ru+] (mixture of isomers) [Ru-3a],aqueous stability over time (NMR),[1],only the exchange of the coordinating chloride ion by a water molecule occurred in a reversible manner
Cc1ccc(C(C)C)cc1.F[P-](F)(F)(F)(F)F.O=C(OC1COC(c2n[n+]3c(o2)-c2cccc[n+]2[Ru-]3[Cl])C(OC(=O)c2ccccc2)C1OC(=O)c1ccccc1)c1ccccc1 (mixture of isomers) [Ru-6],"effect in short-term MTT assay, rapid toxicity (in words)",[2],no effect
same,"effect in short-term MTT assay, rapid toxicity (in words)",[3],cytostatic properties
same,effect of GSH and NAC cotreatment on the cytostatic effects of the complex,A2780 cells [4],attenuated the cytostatic effects
same,effect of MitoTEMPO on the cytostatic effects of the complex,A2780 cells [4],did not modulate the effects
same,logD,[5],2.04
same,Capan2 Hill Slope,[6],1.66
same,IC50,[6],4.97 µM
same,"proportions of PI-positive, annexin V-positive and double-positive cells",A2780 cells [7],did not largely increase
same,IC50,[8],6.69 µM
same,MCF7 Hill Slope,[8],2.13
same,expression of oxidative stress marker 4-hydroxy-nonenal (4HNE),A2780 cells [9],increase in the expression
same,Fibroblast Hill Slope,[10]; [16],3.52
same,IC50,"[10]; SRB, nonlinear regression, N/A = could not be calculated/had no effect, read-out: Fibroblast IC50",24.6 µM
same,effect on SRB signal at 100 µM,"[10]; primary human fibroblasts, 100 µM",reduced the SRB signal
same,IC50,[11],6.61 µM
same,U251 Hill Slope,[11],2.13
same,IC50,A2780 cells [12],6.83 µM
same,cytostatic activity in long-term SRB assay (in words),"[13]; A2780 cells, 100–0.0017 µM",cytostatic properties
same,Hill slope (span over cell lines),"[13]; SRB curves, A2780 and ID8 cells",2–3
same,A2780 Hill Slope,[13]; [16],3.74
same,IC50,[13]; [16],8.54 µM
same,cytostatic activity in long-term SRB assay (in words),ID8 cells [14]; ID8 cells,cytostatic
same,IC50,ID8 cells [14]; [16],6.76 µM
same,ID8 Hill Slope,ID8 cells [14]; [16],3.59
same,effect on MTT signal at 100 µM,ID8 cells [15],reduced the MTT signal
